# Measurements taken from the supplement of paper PMC10307832.
# Key:
# Assay in all cases: relative viability (nuclei count vs DMSO), 5 days (fraction); higher = more cells survive
# Everolimus + OSI-027 = compound: CO[C@H]1C[C@@H]2CC[C@@H](C)[C@@](O)(O2)C(=O)C(=O)N2CCCC[C@H]2C(=O)O[C@H]([C@H](C)C[C@@H]2CC[C@@H](OCCO)[C@H](OC)C2)CC(=O)[C@H](C)/C=C(\C)[C@@H](O)[C@@H](OC)C(=O)[C@H](C)C[C@H](C)/C=C/C=C/C=C/1C [Everolimus] + COc1cccc2cc(-c3nc([C@H]4CC[C@H](C(=O)O)CC4)n4ncnc(N)c34)[nH]c12 [OSI-027] (partner 0.5 µM)
# Summary of the method: (§1)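 Relative viability equals treated-well nuclei counts divided by vehicle-well nuclei counts. Counts came from 4× images of lung cancer cell lines grown in 1536-well plates for 5 days after pin-tool dosing on the day after seeding. Dosing used one drug alone or a fixed anchor-drug dose plus five library-drug doses (not always all listed) in √10 steps, and values are medians of duplicate plates.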
# Everolimus + Luminespib = compound: CO[C@H]1C[C@@H]2CC[C@@H](C)[C@@](O)(O2)C(=O)C(=O)N2CCCC[C@H]2C(=O)O[C@H]([C@H](C)C[C@@H]2CC[C@@H](OCCO)[C@H](OC)C2)CC(=O)[C@H](C)/C=C(\C)[C@@H](O)[C@@H](OC)C(=O)[C@H](C)C[C@H](C)/C=C/C=C/C=C/1C [Everolimus] + CCNC(=O)c1noc(-c2cc(C(C)C)c(O)cc2O)c1-c1ccc(CN2CCOCC2)cc1 [Luminespib] (partner 0.01 µM)
# Summary of the method: as §1
# Everolimus + Pictilisib = compound: CO[C@H]1C[C@@H]2CC[C@@H](C)[C@@](O)(O2)C(=O)C(=O)N2CCCC[C@H]2C(=O)O[C@H]([C@H](C)C[C@@H]2CC[C@@H](OCCO)[C@H](OC)C2)CC(=O)[C@H](C)/C=C(\C)[C@@H](O)[C@@H](OC)C(=O)[C@H](C)C[C@H](C)/C=C/C=C/C=C/1C [Everolimus] + CS(=O)(=O)N1CCN(Cc2cc3nc(-c4cccc5[nH]ncc45)nc(N4CCOCC4)c3s2)CC1 [Pictilisib] (partner 1 µM)
# Summary of the method: as §1
# Everolimus + Palbociclib = compound: CO[C@H]1C[C@@H]2CC[C@@H](C)[C@@](O)(O2)C(=O)C(=O)N2CCCC[C@H]2C(=O)O[C@H]([C@H](C)C[C@@H]2CC[C@@H](OCCO)[C@H](OC)C2)CC(=O)[C@H](C)/C=C(\C)[C@@H](O)[C@@H](OC)C(=O)[C@H](C)C[C@H](C)/C=C/C=C/C=C/1C [Everolimus] + CC(=O)c1c(C)c2cnc(Nc3ccc(N4CCNCC4)cn3)nc2n(C2CCCC2)c1=O [Palbociclib] (partner 0.5 µM)
# Summary of the method: as §1
Cell Line,relative viability (Everolimus + OSI-027; first compound 0.01 µM),relative viability (Everolimus + OSI-027; first compound 0.03162 µM),relative viability (Everolimus + OSI-027; first compound 0.1 µM),relative viability (Everolimus + OSI-027; first compound 0.3162 µM),relative viability (Everolimus + OSI-027; first compound 1 µM),relative viability (Everolimus + Luminespib; first compound 0.01 µM),relative viability (Everolimus + Luminespib; first compound 0.03162 µM),relative viability (Everolimus + Luminespib; first compound 0.1 µM),relative viability (Everolimus + Luminespib; first compound 0.3162 µM),relative viability (Everolimus + Luminespib; first compound 1 µM),relative viability (Everolimus + Pictilisib; first compound 0.01 µM),relative viability (Everolimus + Pictilisib; first compound 0.03162 µM),relative viability (Everolimus + Pictilisib; first compound 0.1 µM),relative viability (Everolimus + Pictilisib; first compound 0.3162 µM),relative viability (Everolimus + Pictilisib; first compound 1 µM),relative viability (Everolimus + Palbociclib; first compound 0.01 µM),relative viability (Everolimus + Palbociclib; first compound 0.03162 µM),relative viability (Everolimus + Palbociclib; first compound 0.1 µM),relative viability (Everolimus + Palbociclib; first compound 0.3162 µM),relative viability (Everolimus + Palbociclib; first compound 1 µM)
LCLC-97TM1,0.455,0.362,0.36,0.337,0.458,0.76,0.743,0.549,0.581,0.769,0.126,0.123,0.128,0.135,0.144,0.225,0.217,0.159,0.164,0.173
HARA,0.277,0.345,,0.282,0.336,0.748,0.768,,0.407,0.203,0.236,0.278,0.227,0.228,0.238,0.242,0.189,0.218,0.241,0.169
HCC-78,0.348,0.332,0.572,0.311,0.347,,,,,,0.193,0.19,0.201,0.185,0.16,0.477,0.489,0.513,0.485,0.379
NCI-H1666,0.722,0.725,0.719,0.811,0.722,0.898,0.964,0.909,0.98,0.929,0.295,0.344,0.309,0.341,0.295,0.567,0.642,0.599,0.693,0.631
NCI-H2347,0.382,0.253,0.326,0.501,0.34,0.497,0.367,0.301,0.332,0.362,0.288,0.281,0.4,0.368,0.358,0.386,0.403,0.401,0.424,0.373
NCI-H838,0.262,0.252,0.233,0.259,0.334,0.206,0.153,0.198,0.172,0.266,0.222,0.219,0.247,0.208,0.262,0.144,0.146,0.159,0.174,0.123
NCI-H2023,0.197,0.25,0.178,0.153,0.158,0.309,0.269,0.413,0.266,0.219,0.164,0.144,0.135,0.174,0.111,0.176,0.139,0.151,0.129,0.129
201T,0.574,0.549,0.519,0.499,0.509,0.85,0.816,0.838,0.823,0.874,0.59,0.604,0.528,0.568,0.645,0.322,0.306,0.274,0.306,0.231
